Like-named read-outs stand apart in the source and are kept apart here.
Columns and labels:
Type in all cases: in vivo
kochia (Kochia scoparia) = assay: Test B pre-/postemergence plant response
How it was run: (§1)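 Steps: plant seeds in loam soil–sand mix; spray soil preemergence, and in parallel spray 2–10 cm one- to two-leaf plants postemergence; hold ~10 days in greenhouse; visually rate injury against untreated controls (0 = no effect, 100 = complete control).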

[1] = tested on: Italian ryegrass (Lolium multiflorum); assay: Test B pre-/postemergence plant response
How it was run: as §1

[2] = tested on: ragweed (common ragweed, Ambrosia elatior); assay: Test B pre-/postemergence plant response
How it was run: as §1

[3] = tested on: wild poinsettia (Euphorbia heterophylla); assay: Test F pre-/postemergence plant response; settings: scale 0 to 100; for pest or weed control at 31 g/ha / pest or weed control at 62 g/ha: Euphorbia heterophylla, read-out: Plant response rating, Poinsettia, Wild
Excerpt: (§2) Seeds of plant species selected from corn (Zea mays), soybean (Glycine max), velvetleaf (Abutilon theophrasti), lambsquarters (Chenopodium album), wild poinsettia (Euphorbia heterophylla), palmer pigweed (Amaranthus palmeri), waterhemp (common waterhemp, Amaranthus rudis), surinam grass (Brachiaria decumbens), large (Lg) crabgrass (Digitaria sanguinalis), Brazilian crabgrass (Digitaria horizontalis), fall panicum (Panicum dichotomiflorum), giant foxtail (Setaria faberii), green foxtail (Setaria viridis), goosegrass (Eleusine indica), johnsongrass (Sorghum halepense), ragweed (common ragweed, Ambrosia elatior), barnyardgrass (Echinochloa crus-galli), sandbur (southern sandbur, Cenchrus echinatus), arrowleaf sida (Sida rhombifolia), Italian ryegrass (Lolium multiflorum), dayflower (Virginia (VA) dayflower, Commelina virginica), field bindweed (Convolvulus arvensis), cocklebur (common cocklebur, Xanthium strumarium), momingglory (Ipomoea coccinea), nightshade (eastern black nightshade, Solanum ptycanthum), kochia (Kochia scoparia), yellow nutsedge (Cyperus esculentus), and hairy beggarticks (Bidens pilosa), were planted into a silt loam soil and treated preemergence with test chemicals formulated in a non-phytotoxic solvent mixture which included a surfactant.
(§3) At the same time, plants from these crop and weed species and also waterhemp_RES1, (ALS & Triazine resistant common waterhemp, Amaranthus rudis), and waterhemp_RES2, (ALS & HPPD resistant common waterhemp, Amaranthus rudis) were treated with postemergence applications of test chemicals formulated in the same manner. Plants ranged in height from 2 to 18 cm for postemergence treatments (1- to 4-leaf stage).
(§4) Treated plants and controls were maintained in a greenhouse for 14 to 21 days, after which time all species were compared to controls and visually evaluated. Plant response ratings, summarized in Table F, are based on a scale of 0 to 100 where 0 is no effect and 100 is complete control. A dash (-) response means no test result.

[4] = tested on: Brazilian crabgrass (Digitaria horizontalis); assay: Test F pre-/postemergence plant response; settings: scale 0 to 100; for pest or weed control at 31 g/ha / pest or weed control at 62 g/ha: Digitaria horizontalis, read-out: Plant response rating, Crabgrass, Brazil
Excerpt: as §2, §3, §4

[5] = tested on: waterhemp_RES1 (ALS & Triazine resistant common waterhemp, Amaranthus rudis); assay: Test F postemergence plant response; settings: scale 0 to 100
Experimental: as §3, §4

[6] = tested on: waterhemp_RES2 (ALS & HPPD resistant common waterhemp, Amaranthus rudis); assay: Test F postemergence plant response; settings: scale 0 to 100
Experimental: as §3, §4

[7] = tested on: galium (catchweed bedstraw, Galium aparine); assay: Test B postemergence plant response
How it was run: (§5)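 Visual injury rating, 0–100 (0 = no effect, 100 = complete control), vs untreated controls ~10 days after postemergence spray; greenhouse; potted loam soil/sand; plants 2–10 cm, 1–2 leaf stage.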

[8] = tested on: blackgrass (Alopecurus myosuroides); assay: Test B postemergence plant response
How it was run: as §5

[9] = 31 g ai/ha, Postemergence, 0 to 100 scale, 0 no effect, 100 complete control
[10] = 125 g ai/ha, postemergence, 0 to 100 scale, 0 no effect, 100 complete control
[11] = Preemergence, 31 g ai/ha, 0 to 100 scale (0 no effect, 100 complete control)
[12] = Preemergence, 125 g ai/ha, 0 to 100 scale where 0 is no effect and 100 is complete control
[13] = Postemergence, 1000 g ai/ha, 0 to 100 scale (0 no effect, 100 complete control)
[14] = Preemergence, 1000 g ai/ha, 0 to 100 scale (0 no effect, 100 complete control)
[15] = post-emergence, 31 g ai/ha Postemergence
[16] = post-emergence, 62 g ai/ha Postemergence
[17] = pre-emergence, 31 g ai/ha Preemergence
[18] = 31 g ai/ha, Preemergence, 0 to 100 scale where 0 is no effect and 100 is complete control
[19] = Postemergence, 31 g ai/ha, 0 to 100 scale (0 no effect, 100 complete control)
[20] = Preemergence, 125 g ai/ha, 0 to 100 scale (0 no effect, 100 complete control)

Structure (SMILES): Fc1ccc(Oc2ncc(Cl)cn2)c(-c2cc(C(F)F)on2)c1Cl [Compound 96]
- Plant response rating, Kochia (kochia (Kochia scoparia); [9]): 70
- Plant response rating, Kochia (kochia (Kochia scoparia); [10]): 100
- Kochia plant response rating (kochia (Kochia scoparia); [11]): 50
- Plant response rating, Kochia (kochia (Kochia scoparia); [12]): 70
- Plant response rating, Ryegrass, Italian [1, 9]: 30
- Plant response rating, Ryegrass, Italian [1, 10]: 60
- Ryegrass, Italian plant response rating [1, 11]: 0
- Plant response rating, Ryegrass, Italian [1, 12]: 0
- Plant response rating, Ragweed [2, 9]: 50
- Plant response rating, Ragweed [2, 10]: 60
- Ragweed plant response rating [2, 11]: 0
- Plant response rating, Ragweed [2, 12]: 0
- Plant response rating, Poinsettia, Wild ([3]; 16 g ai/ha Postemergence): 0
- Plant response rating, Poinsettia, Wild ([3]; 16 g ai/ha Preemergence): 0
- Plant response rating, Poinsettia, Wild ([3]; 31 g ai/ha Postemergence): 30
- Plant response rating, Poinsettia, Wild ([3]; 31 g ai/ha Preemergence): 0
- Plant response rating, Poinsettia, Wild ([3]; 62 g ai/ha Postemergence): 60
- Plant response rating, Poinsettia, Wild ([3]; 125 g ai/ha Postemergence): 50
- Plant response rating, Poinsettia, Wild ([3]; 125 g ai/ha Preemergence): 25
- Plant response rating, Poinsettia, Wild ([3]; Preemergence): 0
- Plant response rating, Crabgrass, Brazil ([4]; 16 g ai/ha Postemergence): 0
- Plant response rating, Crabgrass, Brazil ([4]; 16 g ai/ha Preemergence): 0
- Plant response rating, Crabgrass, Brazil ([4]; 31 g ai/ha Postemergence): 5
- Plant response rating, Crabgrass, Brazil ([4]; 31 g ai/ha Preemergence): 0
- Plant response rating, Crabgrass, Brazil ([4]; 62 g ai/ha Postemergence): 20
- Plant response rating, Crabgrass, Brazil ([4]; 62 g ai/ha Preemergence): 0
- Plant response rating, Crabgrass, Brazil ([4]; 125 g ai/ha Postemergence): 25
- Plant response rating, Crabgrass, Brazil ([4]; 125 g ai/ha Preemergence): 5
- Plant response rating, Waterhemp_RES1 ([5]; 16 g ai/ha Postemergence): 85
- Plant response rating, Waterhemp_RES1 ([5]; 31 g ai/ha Postemergence): 90
- Plant response rating, Waterhemp_RES1 ([5]; 62 g ai/ha Postemergence): 95
- Plant response rating, Waterhemp_RES1 ([5]; 125 g ai/ha Postemergence): 95
- Plant response rating, Waterhemp_RES2 ([6]; 16 g ai/ha Postemergence): 85
- Plant response rating, Waterhemp_RES2 ([6]; 31 g ai/ha Postemergence): 90
- Plant response rating, Waterhemp_RES2 ([6]; 62 g ai/ha Postemergence): 90
- Plant response rating, Waterhemp_RES2 ([6]; 125 g ai/ha Postemergence): 95
- Plant response rating, Galium [7, 9]: 100
- Plant response rating, Galium [7, 10]: 100
- Plant response rating, Blackgrass [8, 9]: 10
- Plant response rating, Blackgrass [8, 10]: 70

Structure (SMILES): Fc1cccc(Oc2ncc(Cl)cn2)c1-c1cc(C(F)F)on1 [Compound 55, 5-chloro-2-[2-[5-(difluoromethyl)-3-isoxazolyl]-3-fluorophenoxy]pyrimidine]
- Plant response rating, Kochia (kochia (Kochia scoparia); [13]): 100
- Plant response rating, Kochia (kochia (Kochia scoparia); [14]): 100
- Plant response rating, Ryegrass, Italian [1, 13]: 100
- Plant response rating, Ryegrass, Italian [1, 14]: 100
- Plant response rating, Ragweed [2, 13]: 100
- Plant response rating, Ragweed [2, 14]: 100
- pest or weed control at 31 g/ha [3, 15]: 35%
- pest or weed control at 62 g/ha [3, 16]: 45%
- pest or weed control at 31 g/ha [3, 17]: 0%
- pest or weed control at 62 g/ha ([3]; pre-emergence, Preemergence): 30%
- pest or weed control at 31 g/ha [4, 15]: 40%
- pest or weed control at 62 g/ha [4, 16]: 30%
- pest or weed control at 31 g/ha [4, 17]: 75%
- pest or weed control at 62 g/ha ([4]; pre-emergence, 62 g ai/ha Preemergence): 100%
- Plant response rating, Waterhemp_RES1 ([5]; 31 g ai/ha Postemergence): 100
- Plant response rating, Waterhemp_RES1 ([5]; 62 g ai/ha Postemergence): 100
- Plant response rating, Waterhemp_RES2 ([6]; 31 g ai/ha Postemergence): 100
- Plant response rating, Waterhemp_RES2 ([6]; 62 g ai/ha Postemergence): 100
- Plant response rating, Galium [7, 13]: 100
- Plant response rating, Blackgrass [8, 13]: 100

Structure (SMILES): CC(F)(F)c1cc(-c2ccccc2Oc2ncc(Br)cn2)no1 [Compound 149]
- Plant response rating, Kochia (kochia (Kochia scoparia); [18]): 20
- Plant response rating, Kochia (kochia (Kochia scoparia); [10]): 100
- Plant response rating, Kochia (kochia (Kochia scoparia); [19]): 90
- Kochia plant response rating (kochia (Kochia scoparia); [20]): 80
- Plant response rating, Ryegrass, Italian [1, 18]: 0
- Plant response rating, Ryegrass, Italian [1, 10]: 20
- Plant response rating, Ryegrass, Italian [1, 19]: 0
- Ryegrass, Italian plant response rating [1, 20]: 10
- Plant response rating, Ragweed [2, 18]: 0
- Plant response rating, Ragweed [2, 10]: 20
- Plant response rating, Ragweed [2, 19]: 10
- Ragweed plant response rating [2, 20]: 0
- Plant response rating, Poinsettia, Wild ([3]; 16 g ai/ha Postemergence): 50
- Plant response rating, Poinsettia, Wild ([3]; 16 g ai/ha Preemergence): 0
- Plant response rating, Poinsettia, Wild ([3]; 31 g ai/ha Postemergence): 40
- Plant response rating, Poinsettia, Wild ([3]; 31 g ai/ha Preemergence): 0
- Plant response rating, Poinsettia, Wild ([3]; 62 g ai/ha Postemergence): 60
- Plant response rating, Poinsettia, Wild ([3]; 125 g ai/ha Postemergence): 70
- Plant response rating, Poinsettia, Wild ([3]; 125 g ai/ha Preemergence): 35
- Plant response rating, Poinsettia, Wild ([3]; Preemergence): 0
- Plant response rating, Crabgrass, Brazil ([4]; 16 g ai/ha Postemergence): 20
- Plant response rating, Crabgrass, Brazil ([4]; 16 g ai/ha Preemergence): 0
- Plant response rating, Crabgrass, Brazil ([4]; 31 g ai/ha Postemergence): 20
- Plant response rating, Crabgrass, Brazil ([4]; 31 g ai/ha Preemergence): 15
- Plant response rating, Crabgrass, Brazil ([4]; 62 g ai/ha Postemergence): 20
- Plant response rating, Crabgrass, Brazil ([4]; 62 g ai/ha Preemergence): 35
- Plant response rating, Crabgrass, Brazil ([4]; 125 g ai/ha Postemergence): 25
- Plant response rating, Crabgrass, Brazil ([4]; 125 g ai/ha Preemergence): 85
- Plant response rating, Waterhemp_RES1 ([5]; 16 g ai/ha Postemergence): 80
- Plant response rating, Waterhemp_RES1 ([5]; 31 g ai/ha Postemergence): 85
- Plant response rating, Waterhemp_RES1 ([5]; 62 g ai/ha Postemergence): 90
- Plant response rating, Waterhemp_RES1 ([5]; 125 g ai/ha Postemergence): 100
- Plant response rating, Waterhemp_RES2 ([6]; 16 g ai/ha Postemergence): 95
- Plant response rating, Waterhemp_RES2 ([6]; 31 g ai/ha Postemergence): 95
- Plant response rating, Waterhemp_RES2 ([6]; 62 g ai/ha Postemergence): 100
- Plant response rating, Waterhemp_RES2 ([6]; 125 g ai/ha Postemergence): 100
- Plant response rating, Galium [7, 10]: 90
- Plant response rating, Galium [7, 19]: 90
- Plant response rating, Blackgrass [8, 10]: 60
- Plant response rating, Blackgrass [8, 19]: 10

— patent publication US10131652B2, “Pyrimidinyloxy benzene derivatives as herbicides” (E. I. DU PONT DE NEMOURS AND COMPANY, priority 2014, dated 2018)
